Reference: ChEMBL document CHEMBL1201862, “PubChem BioAssay data set” (2004)
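All cell lines were grown in 96-well plates and treated with compound for 48 hours. GI50 is the concentration that inhibits growth by half.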 The source made the active and inactive calls. Cut-off read from the data, not from the text of the source: active = GI50 up to about 1.1 µM and inactive = higher.

How the values were obtained:
Assay in all cases: NCI-60 cell line screen, 48 h
SW-620 = system: SW-620
Malme-3M = system: Malme-3M
OVCAR-8 = system: OVCAR-8
MOLT-4 = system: MOLT-4
HL-60 = system: HL-60
OVCAR-3 = system: OVCAR-3
A549 = system: A549
UO-31 = system: UO-31
HOP-62 = system: HOP-62
COLO 205 = system: COLO 205
KM12 = system: KM12
TK-10 = system: TK-10
CAKI-1 = system: CAKI-1
HCC 2998 = system: HCC 2998
HCT-116 = system: HCT-116
786-0 = system: 786-0
OVCAR-5 = system: OVCAR-5
SNB-19 = system: SNB-19
EKVX = system: EKVX
OVCAR-4 = system: OVCAR-4

Measured: GI50

O=C1C(Cl)C(c2ccccc2Cl)N1n1cnc2ccccc2c1=O (stereo not given)
inactive: SW-620 31.9 µM | Malme-3M > 100 µM | OVCAR-8 > 100 µM | MOLT-4 68.5 µM | HL-60 8.69 µM | OVCAR-3 > 100 µM | A549 > 100 µM | UO-31 7.52 µM | HOP-62 16.3 µM | COLO 205 > 100 µM | KM12 > 100 µM | TK-10 46.7 µM | CAKI-1 47.6 µM | HCC 2998 39.6 µM | HCT-116 36.1 µM | 786-0 75.7 µM | OVCAR-5 > 100 µM | SNB-19 22.5 µM | EKVX 18.5 µM | OVCAR-4 > 100 µM

CN(c1ccc(Cl)cc1)S(=O)(=O)c1ccc([N+](=O)[O-])cc1
inactive: SW-620 > 100 µM | Malme-3M 84.7 µM | OVCAR-8 > 100 µM | MOLT-4 > 100 µM | HL-60 59.4 µM | OVCAR-3 > 100 µM | A549 > 100 µM | UO-31 > 100 µM | HOP-62 > 100 µM | COLO 205 > 100 µM | KM12 > 100 µM | TK-10 > 100 µM | CAKI-1 > 100 µM | HCC 2998 > 100 µM | HCT-116 > 100 µM | 786-0 > 100 µM | OVCAR-5 > 100 µM | SNB-19 > 100 µM | EKVX > 100 µM | OVCAR-4 > 100 µM

C/C=C(/C)C(=O)OC1CC(C)[C@H]2CC(=O)C(C)=C2CC1C(C)(C)OC(C)=O (stereo not given in full)
inactive: SW-620 43.7 µM | Malme-3M 19.3 µM | OVCAR-8 30.8 µM | MOLT-4 26.2 µM | HL-60 21.4 µM | OVCAR-3 20.3 µM | A549 30.3 µM | UO-31 23.5 µM | HOP-62 28.9 µM | COLO 205 17.9 µM | KM12 25.9 µM | TK-10 28.8 µM | CAKI-1 37.1 µM | HCC 2998 22.6 µM | HCT-116 19.6 µM | 786-0 43.8 µM | OVCAR-5 > 100 µM | SNB-19 34.4 µM | EKVX 39.1 µM | OVCAR-4 22.2 µM

COC(=O)[C@]1(C)CCC[C@@]2(C)C1CCC1=CC3(C(C)C)CCC12OO3 (stereo not given in full)
inactive: SW-620 > 100 µM | Malme-3M 36.2 µM | OVCAR-8 63.8 µM | MOLT-4 20 µM | HL-60 15.9 µM | OVCAR-3 > 100 µM | A549 44 µM | UO-31 41 µM | HOP-62 > 100 µM | COLO 205 > 100 µM | KM12 > 100 µM | TK-10 > 100 µM | CAKI-1 80.5 µM | HCC 2998 88.5 µM | HCT-116 42 µM | 786-0 85.3 µM | OVCAR-5 > 100 µM | SNB-19 > 100 µM | EKVX 90.6 µM | OVCAR-4 51.3 µM

C/C(Cl)=N\OC(=O)Nc1ccc(C)cc1
inactive: SW-620 16.8 µM | Malme-3M 16.9 µM | OVCAR-8 17.9 µM | MOLT-4 > 10 µM | HL-60 2.22 µM | OVCAR-3 18 µM | A549 18.2 µM | UO-31 17.4 µM | HOP-62 46.9 µM | COLO 205 16.2 µM | KM12 17.2 µM | TK-10 15.2 µM | CAKI-1 16.7 µM | HCC 2998 16.9 µM | HCT-116 19.1 µM | 786-0 18.7 µM | OVCAR-5 18.5 µM | SNB-19 > 100 µM | EKVX 18.3 µM | OVCAR-4 18.5 µM

C=CC(C)CCC(C/C=C(\C)CCCC(C)C)C(=C)CCCC(C)C (stereo not given)
inactive: SW-620 > 100 µM | Malme-3M > 100 µM | OVCAR-8 > 100 µM | MOLT-4 > 100 µM | HL-60 > 100 µM | OVCAR-3 > 100 µM | A549 > 100 µM | UO-31 > 100 µM | HOP-62 > 100 µM | COLO 205 > 100 µM | KM12 > 100 µM | TK-10 > 100 µM | CAKI-1 > 100 µM | HCC 2998 > 100 µM | HCT-116 > 100 µM | 786-0 > 100 µM | OVCAR-5 > 100 µM | SNB-19 > 100 µM | EKVX > 100 µM | OVCAR-4 > 100 µM

CC(=O)OC1C(O)COC(O[C@H]2CC[C@]34C[C@]35CC[C@]3(C)C([C@@]6(C)CC[C@@H](C(C)(C)O)O6)[C@@H](O)C[C@@]3(C)C5C[C@H](OC3OCC(O)C(O)C3O)[C@H]4C2(C)C)C1OC1OCC(O)C(O)C1O (stereo not given in full)
inactive: SW-620 > 100 µM | Malme-3M > 100 µM | OVCAR-8 > 100 µM | MOLT-4 > 100 µM | HL-60 11.6 µM | OVCAR-3 > 100 µM | A549 > 100 µM | UO-31 > 100 µM | HOP-62 > 100 µM | COLO 205 > 100 µM | KM12 > 100 µM | TK-10 > 100 µM | CAKI-1 > 100 µM | HCC 2998 > 100 µM | HCT-116 > 100 µM | 786-0 > 100 µM | OVCAR-5 > 100 µM | SNB-19 > 100 µM | EKVX > 100 µM | OVCAR-4 > 100 µM

CCCCCCCCCCCCCCCCCCNc1ccn(C2OC(COP(=O)(O)OCC3OC(n4ccc(N)nc4=O)C(O)C3O)C(O)C2O)c(=O)n1 (stereo not given)
inactive: SW-620 > 89.7 µM | Malme-3M > 50 µM | OVCAR-8 20 µM | MOLT-4 2.45 µM | HL-60 10.2 µM | OVCAR-3 > 100 µM | A549 8.59 µM | UO-31 42.4 µM | HOP-62 29.6 µM | COLO 205 47.3 µM | KM12 > 89.1 µM | TK-10 > 100 µM | CAKI-1 67.6 µM | HCC 2998 38.2 µM | HCT-116 18.8 µM | 786-0 44.7 µM | OVCAR-5 98.6 µM | SNB-19 39.7 µM | EKVX > 100 µM | OVCAR-4 > 72.8 µM

C=C1c2nc3ccccc3n2C=C(c2ccc(OC)cc2)N1c1ccccc1
inactive: SW-620 3.66 µM | Malme-3M 3.98 µM | OVCAR-8 8.61 µM | MOLT-4 3.95 µM | HL-60 1.59 µM | OVCAR-3 6.62 µM | A549 5.37 µM | UO-31 9.02 µM | HOP-62 36.8 µM | COLO 205 5.36 µM | KM12 2.62 µM | TK-10 32.7 µM | CAKI-1 37.8 µM | HCC 2998 3.75 µM | HCT-116 3.95 µM | 786-0 6.11 µM | OVCAR-5 > 78.5 µM | SNB-19 11.3 µM | EKVX 19 µM | OVCAR-4 17.9 µM

CCOC(=O)c1c(-c2ccc(OC)cc2)c(C#N)c(=S)n(C2OC(COC(C)=O)C(OC(C)=O)C(OC(C)=O)C2OC(C)=O)c1C (stereo not given)
inactive: SW-620 > 100 µM | Malme-3M > 100 µM | OVCAR-8 > 100 µM | MOLT-4 61.1 µM | HL-60 75.7 µM | OVCAR-3 31.5 µM | A549 > 100 µM | UO-31 1.46 µM | HOP-62 > 100 µM | COLO 205 > 100 µM | KM12 > 100 µM | TK-10 > 100 µM | CAKI-1 > 100 µM | HCC 2998 > 100 µM | HCT-116 > 100 µM | 786-0 > 100 µM | OVCAR-5 > 100 µM | SNB-19 > 100 µM | EKVX 78.2 µM | OVCAR-4 20.9 µM

CSS(C)(=O)=O
inactive: SW-620 46.7 µM | Malme-3M 26.9 µM | OVCAR-8 27.4 µM | MOLT-4 2.43 µM | HL-60 24.9 µM | OVCAR-3 16.7 µM | A549 44.7 µM | UO-31 24.5 µM | HOP-62 44.2 µM | COLO 205 1.95 µM | KM12 34.3 µM | TK-10 24.7 µM | CAKI-1 22.8 µM | HCC 2998 27.8 µM | HCT-116 58.6 µM | 786-0 39.6 µM | OVCAR-5 17.5 µM | SNB-19 > 100 µM | EKVX 27.9 µM | OVCAR-4 27.4 µM
